{
  "source": "ChEMBL document CHEMBL4673307",
  "about": "“Pyrrolo[2,3-b]pyridine-3-one derivatives as novel fibroblast growth factor receptor 4 inhibitors for the treatment of hepatocellular carcinoma” (Bioorg Med Chem, 2021)",
  "key": {"Hep 3B2": {"system": "Hep 3B2", "assay": "Antiproliferative activity against human Hep3B cells assessed as reduction in cell viability incubated for 72 hrs by Cell Titer-Glo assay"}, "[1]": {"target": "Fibroblast growth factor receptor 4 (Homo sapiens, UniProt P22455)", "sequence (P22455 whole entry)": "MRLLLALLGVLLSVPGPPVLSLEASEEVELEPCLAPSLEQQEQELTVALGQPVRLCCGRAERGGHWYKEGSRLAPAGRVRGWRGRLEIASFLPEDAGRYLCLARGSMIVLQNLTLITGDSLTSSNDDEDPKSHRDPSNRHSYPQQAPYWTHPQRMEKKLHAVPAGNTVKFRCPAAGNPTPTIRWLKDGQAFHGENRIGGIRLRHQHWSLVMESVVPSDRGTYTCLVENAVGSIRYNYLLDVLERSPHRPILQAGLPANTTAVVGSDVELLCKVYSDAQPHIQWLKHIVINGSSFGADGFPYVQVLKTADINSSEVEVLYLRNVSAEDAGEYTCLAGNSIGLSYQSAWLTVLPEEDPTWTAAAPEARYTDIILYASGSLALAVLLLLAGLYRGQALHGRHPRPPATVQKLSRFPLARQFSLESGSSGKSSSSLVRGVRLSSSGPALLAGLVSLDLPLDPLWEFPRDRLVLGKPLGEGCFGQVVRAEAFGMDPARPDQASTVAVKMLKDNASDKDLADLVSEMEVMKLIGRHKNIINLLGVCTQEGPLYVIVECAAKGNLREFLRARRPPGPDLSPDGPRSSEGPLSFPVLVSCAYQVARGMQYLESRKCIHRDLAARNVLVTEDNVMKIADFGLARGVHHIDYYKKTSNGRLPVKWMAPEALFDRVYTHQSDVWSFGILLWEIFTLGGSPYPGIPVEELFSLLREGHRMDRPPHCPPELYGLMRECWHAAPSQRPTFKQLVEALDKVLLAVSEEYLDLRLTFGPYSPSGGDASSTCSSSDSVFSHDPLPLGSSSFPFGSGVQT", "assay": "Inhibition of human FGFR4 using poly (Glu, Tyr)4:1 as substrate incubated for 20 mins followed by [33P]-ATP addition and measured after 120 mins by radiometric hotspot assay"}, "[2]": {"assay": "Metabolic stability in human liver microsomes assessed as half life at 1 uM incubated for 60 mins by LC-MS/MS analysis", "assay_type": "ADME, Microsome"}, "[3]": {"assay": "Metabolic stability in human liver microsomes assessed as intrinsic clearance at 1 uM incubated for 60 mins by LC-MS/MS analysis", "assay_type": "ADME, Microsome", "conditions": "read-out: CLH"}, "[4]": {"assay": "Cmax in Sprague-Dawley rat at 1 mg/kg, iv measured upto 24 hrs by LC-MS/MS analysis", "assay_type": "ADME, organism-based", "design": "route intravenous, dose 1 mg/kg, time <=24", "conditions": "in vivo"}, "[5]": {"assay": "AUClast in Sprague-Dawley rat at 10 mg/kg, po measured upto 24 hrs by LC-MS/MS analysis", "assay_type": "ADME, organism-based", "design": "route oral, dose 10 mg/kg, time <=24", "conditions": "in vivo"}, "[6]": {"assay": "Tmax in Sprague-Dawley rat at 1 mg/kg, iv measured upto 24 hrs by LC-MS/MS analysis", "assay_type": "ADME, organism-based", "conditions": "in vivo"}, "[7]": {"assay": "Half life in Sprague-Dawley rat at 1 mg/kg, iv measured upto 24 hrs by LC-MS/MS analysis", "assay_type": "ADME, organism-based", "conditions": "in vivo"}, "[8]": {"assay": "AUClast in Sprague-Dawley rat at 1 mg/kg, iv measured upto 24 hrs by LC-MS/MS analysis", "assay_type": "ADME, organism-based", "design": "route intravenous, dose 1 mg/kg, time <=24", "conditions": "in vivo"}, "[9]": {"assay": "Cmax in Sprague-Dawley rat at 10 mg/kg, po measured upto 24 hrs by LC-MS/MS analysis", "assay_type": "ADME, organism-based", "design": "route oral, dose 10 mg/kg, time <=24", "conditions": "in vivo"}, "[10]": {"assay": "Half life in Sprague-Dawley rat at 10 mg/kg, po measured upto 24 hrs by LC-MS/MS analysis", "assay_type": "ADME, organism-based", "conditions": "in vivo"}, "[11]": {"assay": "MRTlast in Sprague-Dawley rat at 1 mg/kg, iv measured upto 24 hrs by LC-MS/MS analysis", "assay_type": "ADME, organism-based", "conditions": "in vivo"}, "[12]": {"assay": "Oral bioavailability in Sprague-Dawley rat at 10 mg/kg measured upto 24 hrs by LC-MS/MS analysis", "assay_type": "ADME, organism-based", "conditions": "in vivo"}, "[13]": {"assay": "Tmax in Sprague-Dawley rat at 10 mg/kg, po measured upto 24 hrs by LC-MS/MS analysis", "assay_type": "ADME, organism-based", "conditions": "in vivo"}, "[14]": {"assay": "MRTlast in Sprague-Dawley rat at 10 mg/kg, po measured upto 24 hrs by LC-MS/MS analysis", "assay_type": "ADME, organism-based", "conditions": "in vivo"}},
  "data": [
    {"compound": "C=CC(=O)N1CCN(CCCn2cc(-c3cc(OC)cc(OC)c3)c3ccc(NC)nc32)CC1", "values": [
      {"measurement": "IC50", "setting": "Hep 3B2", "result": "> 10000", "unit": "nM"}
    ]},
    {"compound": "C=CC(=O)Nc1cccc(C)c1Nc1ccc2c(C(=O)c3cc(OC)cc(OC)c3)c[nH]c2n1", "values": [
      {"measurement": "IC50", "setting": "Hep 3B2", "result": 438, "unit": "nM"}
    ]},
    {"compound": "C=CC(=O)N1CCN(CCn2cc(-c3ccc(OC)c(OC)c3)c3cnc(NC)nc32)CC1", "values": [
      {"measurement": "IC50", "setting": "[1]", "result": "> 1000", "unit": "nM"},
      {"measurement": "IC50", "setting": "Hep 3B2", "result": "> 10000", "unit": "nM"}
    ]},
    {"compound": "CC#CC(=O)N1CCN(CCCn2cc(-c3cc(OC)cc(OC)c3)c3cnc(NC)nc32)CC1", "values": [
      {"measurement": "IC50", "setting": "[1]", "result": "> 1000", "unit": "nM"},
      {"measurement": "IC50", "setting": "Hep 3B2", "result": "> 10000", "unit": "nM"}
    ]},
    {"compound": "C=CC(=O)Nc1cccc(C)c1Nc1ncc2cc(-c3c(Cl)c(OC)cc(OC)c3Cl)ccc2n1", "values": [
      {"measurement": "half-life at 1 µM", "setting": "[2]", "result": 46.7, "unit": "min"},
      {"measurement": "IC50", "setting": "Hep 3B2", "result": 288, "unit": "nM"},
      {"measurement": "microsomal CLint at 1 µM", "setting": "[3]", "result": 74.1, "unit": "µL/min/mg"}
    ]},
    {"compound": "C=CC(=O)Nc1ccccc1Nc1ccc2c(C(=O)c3cc(OC)cc(OC)c3)c[nH]c2n1", "values": [
      {"measurement": "Cmax", "setting": "[4]", "result": 361, "unit": "ng/mL"},
      {"measurement": "AUC(0-t) at 24 h", "setting": "[5]", "result": 206, "unit": "ng·h/mL"},
      {"measurement": "Tmax", "setting": "[6]", "result": 4.98, "unit": "min"},
      {"measurement": "half-life at 1 µM", "setting": "[2]", "result": 62, "unit": "min"},
      {"measurement": "half-life", "setting": "[7]", "result": 51.6, "unit": "min"},
      {"measurement": "AUC(0-t) at 24 h", "setting": "[8]", "result": 277, "unit": "ng·h/mL"},
      {"measurement": "Cmax", "setting": "[9]", "result": 33.9, "unit": "ng/mL"},
      {"measurement": "half-life", "setting": "[10]", "result": 463, "unit": "min"},
      {"measurement": "MRT last at 24 h", "setting": "[11]", "result": 46.2, "unit": "min"},
      {"measurement": "bioavailability", "setting": "[12]", "result": 6.65, "unit": "%"},
      {"measurement": "Tmax", "setting": "[13]", "result": 1, "unit": "h"},
      {"measurement": "MRT last at 24 h", "setting": "[14]", "result": 3.79, "unit": "h"},
      {"measurement": "microsomal CLint at 1 µM", "setting": "[3]", "result": 55.9, "unit": "µL/min/mg"}
    ]},
    {"compound": "CC#CC(=O)Nc1ccccc1Nc1ccc2c(C(=O)c3cc(OC)cc(OC)c3)c[nH]c2n1", "values": [
      {"measurement": "IC50", "setting": "Hep 3B2", "result": 602, "unit": "nM"}
    ]},
    {"compound": "C=CC(=O)NC1CCCCC1Nc1ccc2c(C(=O)c3cc(OC)cc(OC)c3)c[nH]c2n1", "note": "(centres undefined)", "values": [
      {"measurement": "IC50", "setting": "Hep 3B2", "result": 258, "unit": "nM"}
    ]},
    {"compound": "CNc1ncc2c(-c3cc(OC)cc(OC)c3)noc2n1", "values": [
      {"measurement": "IC50", "setting": "[1]", "result": "> 1000", "unit": "nM"},
      {"measurement": "IC50", "setting": "Hep 3B2", "result": "> 10000", "unit": "nM"}
    ]},
    {"compound": "C=CS(=O)(=O)Nc1ccccc1Nc1ccc2c(C(=O)c3cc(OC)cc(OC)c3)c[nH]c2n1", "values": [
      {"measurement": "IC50", "setting": "Hep 3B2", "result": 1030, "unit": "nM"}
    ]},
    {"compound": "C=CC(=O)Nc1ccccc1Nc1ncc2c(-c3cc(OC)cc(OC)c3)n[nH]c2n1", "values": [
      {"measurement": "IC50", "setting": "Hep 3B2", "result": 4090, "unit": "nM"}
    ]},
    {"compound": "C=CC(=O)N1CCN(CCn2nc(-c3cc(OC)cc(OC)c3)c3cnc(NC)nc32)CC1", "values": [
      {"measurement": "IC50", "setting": "[1]", "result": "> 1000", "unit": "nM"},
      {"measurement": "IC50", "setting": "Hep 3B2", "result": "> 10000", "unit": "nM"}
    ]},
    {"compound": "C=CS(=O)(=O)N1CCN(CCCn2cc(-c3cc(OC)cc(OC)c3)c3cnc(NC)nc32)CC1", "values": [
      {"measurement": "IC50", "setting": "[1]", "result": "> 1000", "unit": "nM"},
      {"measurement": "IC50", "setting": "Hep 3B2", "result": "> 10000", "unit": "nM"}
    ]},
    {"compound": "C=CC(=O)N1CCN(CCn2cc(-c3cc(OC)cc(OC)c3)c3cnc(NC)nc32)CC1", "values": [
      {"measurement": "IC50", "setting": "[1]", "result": "> 1000", "unit": "nM"},
      {"measurement": "IC50", "setting": "Hep 3B2", "result": "> 10000", "unit": "nM"}
    ]}
  ]
}
